# Publication PMC6540285, “Evaluation of Protein Kinase Inhibitors with PLK4 Cross-Over Potential in a Pre-Clinical Model of Cancer” (International Journal of Molecular Sciences, 2019)
# Experiments:
# PKN2 (PRK2) = PKN2 (PRK2) (Homo sapiens, UniProt Q16513); assay: SelectScreen kinase profiling, LanthaScreen binding
# SRPK2 = SRPK2 (Homo sapiens, UniProt P78362); assay: SelectScreen kinase profiling, ZLYTE; type: biochemical; settings: SRPK2, 10 µM
# ABL1 H396P = ABL1 H396P (Homo sapiens, UniProt P00519, H396P); assay: SelectScreen kinase profiling, LanthaScreen binding
# PAK6 = PAK6 (Homo sapiens, UniProt Q9NQU5); assay: SelectScreen kinase profiling, ZLYTE; type: biochemical; settings: PAK6, 10 µM
# GSK3A (GSK3 alpha) = GSK3A (GSK3 alpha) (Homo sapiens, UniProt P49840); assay: SelectScreen kinase profiling, ZLYTE; type: biochemical
# P450 2C8 = P450 2C8 (Homo sapiens, UniProt P10632); assay: SelectScreen P450 Vivid biochemical assay; settings: 10000nM; substrate DBOMF
# CDK6/cyclin D1 = CDK6/cyclin D1 (Homo sapiens, UniProt Q00534); assay: SelectScreen kinase profiling, Adapta; type: biochemical; settings: CDK6/cyclin D1, 10 µM
# [1] = target: MAPK14 (p38 alpha) Direct (Homo sapiens, UniProt Q16539); assay: SelectScreen kinase profiling, ZLYTE; type: biochemical
# P450 2J2 = P450 2J2 (Homo sapiens, UniProt P51589); assay: SelectScreen P450 Vivid biochemical assay; settings: 10000nM; substrate MOBFC
# MET D1228H = MET D1228H (Homo sapiens, UniProt P08581, D1228H); assay: SelectScreen kinase profiling, LanthaScreen binding
# STK25 (YSK1) = STK25 (YSK1) (Homo sapiens, UniProt O00506); assay: SelectScreen kinase profiling, ZLYTE; type: biochemical
# From the text: (§1) Kinase Technology % Inhibition Avg Kinase Technology % Inhibition Avg […]
# STK3 (MST2) = STK3 (MST2) (Homo sapiens, UniProt Q13188); assay: SelectScreen kinase profiling, ZLYTE; type: biochemical
# From the text: as §1
# STK24 (MST3) = STK24 (MST3) (Homo sapiens, UniProt Q9Y6E0); assay: SelectScreen kinase profiling, ZLYTE; type: biochemical
# From the text: as §1
# TNK1 = TNK1 (Homo sapiens, UniProt Q13470); assay: SelectScreen kinase profiling, ZLYTE; type: biochemical; settings: TNK1, 10 µM
# From the text: as §1
# SYK = SYK (Homo sapiens, UniProt P43405); assay: SelectScreen kinase profiling, ZLYTE; type: biochemical
# From the text: as §1
# TEK (TIE2) Y897S = TEK (TIE2) Y897S (Homo sapiens, UniProt Q02763, Y897S); assay: SelectScreen kinase profiling, ZLYTE; type: biochemical
# From the text: as §1
# TYK2 = TYK2 (Homo sapiens, UniProt P29597); assay: SelectScreen kinase profiling, ZLYTE; type: biochemical; settings: TYK2, 10 µM
# From the text: as §1
# TBK1 = TBK1 (Homo sapiens, UniProt Q9UHD2); assay: SelectScreen kinase profiling, ZLYTE; type: biochemical; settings: TBK1, 10 µM
# From the text: as §1
# TEK (Tie2) = TEK (Tie2) (Homo sapiens, UniProt Q02763); assay: SelectScreen kinase profiling, ZLYTE; type: biochemical
# From the text: as §1
# TAOK2 (TAO1) = TAOK2 (TAO1) (Homo sapiens, UniProt Q9UL54); assay: SelectScreen kinase profiling, ZLYTE; type: biochemical
# From the text: as §1
# TYRO3 (RSE) = TYRO3 (RSE) (Homo sapiens, UniProt Q06418); assay: SelectScreen kinase profiling, ZLYTE; type: biochemical
# From the text: as §1
# TXK = TXK (Homo sapiens, UniProt P42681); assay: SelectScreen kinase profiling, ZLYTE; type: biochemical
# From the text: as §1
# STK4 (MST1) = STK4 (MST1) (Homo sapiens, UniProt Q13043); assay: SelectScreen kinase profiling, ZLYTE; type: biochemical
# From the text: as §1
# HIPK1 (Myak) = HIPK1 (Myak) (Homo sapiens, UniProt Q86Z02); assay: SelectScreen kinase profiling, ZLYTE; type: biochemical
# AMPK (A2/B2/G2) = AMPK (A2/B2/G2) (Homo sapiens, UniProt P54646); assay: SelectScreen kinase profiling, LanthaScreen binding
# MAPK10 (JNK3) = MAPK10 (JNK3) (Homo sapiens, UniProt P53779); assay: as above
# MET (cMet) = MET (cMet) (Homo sapiens, UniProt P08581); assay: SelectScreen kinase profiling, ZLYTE; type: biochemical
# SNF1LK2 = SNF1LK2 (Homo sapiens, UniProt Q9H0K1); assay: SelectScreen kinase profiling, ZLYTE; type: biochemical; settings: SNF1LK2, 10 µM
# FGFR3 V555M = FGFR3 V555M (Homo sapiens, UniProt P22607, V555M); assay: SelectScreen kinase profiling, ZLYTE; type: biochemical
# MAPK9 (JNK2) = MAPK9 (JNK2) (Homo sapiens, UniProt P45984); assay: SelectScreen kinase profiling, LanthaScreen binding
# FGFR4 = FGFR4 (Homo sapiens, UniProt P22455); assay: SelectScreen kinase profiling, ZLYTE; type: biochemical; settings: FGFR4, 10 µM
# PLK3 = PLK3 (Homo sapiens, UniProt Q9H4B4); assay: SelectScreen kinase profiling, ZLYTE; type: biochemical; settings: PLK3, 10 µM
# MAP4K5 (KHS1) = MAP4K5 (KHS1) (Homo sapiens, UniProt Q9Y4K4); assay: SelectScreen kinase profiling, ZLYTE; type: biochemical
# DDR2 T654M = DDR2 T654M (Homo sapiens, UniProt Q16832, T654M); assay: SelectScreen kinase profiling, LanthaScreen binding
# DDR1 = DDR1 (Homo sapiens, UniProt Q08345); assay: as above; settings: DDR1, 10 µM
# AKT2 (PKB beta) = AKT2 (PKB beta) (Homo sapiens, UniProt P31751); assay: SelectScreen kinase profiling, ZLYTE; type: biochemical
# PDGFRA V561D = PDGFRA V561D (Homo sapiens, UniProt P16234, V561D); assay: SelectScreen kinase profiling, ZLYTE; type: biochemical
# PAK4 = PAK4 (Homo sapiens, UniProt O96013); assay: SelectScreen kinase profiling, ZLYTE; type: biochemical; settings: PAK4, 10 µM
# MERTK (cMER) = MERTK (cMER) (Homo sapiens, UniProt Q12866); assay: SelectScreen kinase profiling, ZLYTE; type: biochemical
smiles,measurement,setting,value
O=C(c1ccc(/C=C/c2n[nH]c3ccccc23)cc1)N1CCNCC1 [KW-2449],inhibition at 10 µM,PKN2 (PRK2),65%
same,inhibition at 10 µM,SRPK2,32%
same,inhibition at 10 µM,ABL1 H396P,78%
same,inhibition at 10 µM,PAK6,60%
same,inhibition at 10 µM,GSK3A (GSK3 alpha),63%
same,% Inhibition 2C8 DBOMF,P450 2C8,33%
same,inhibition at 10 µM,CDK6/cyclin D1,82%
same,inhibition at 10 µM,[1],44%
same,% Inhibition 2J2 MOBFC,P450 2J2,96%
same,inhibition at 10 µM,MET D1228H,75%
same,inhibition at 10 µM,STK25 (YSK1),45%
same,inhibition at 10 µM,STK3 (MST2),77%
same,inhibition at 10 µM,STK24 (MST3),85%
same,inhibition at 10 µM,TNK1,94%
same,inhibition at 10 µM,SYK,98%
same,inhibition at 10 µM,TEK (TIE2) Y897S,80%
same,inhibition at 10 µM,TYK2,99%
same,inhibition at 10 µM,TBK1,99%
same,inhibition at 10 µM,TEK (Tie2),99%
same,inhibition at 10 µM,TAOK2 (TAO1),87%
same,inhibition at 10 µM,TYRO3 (RSE),92%
same,inhibition at 10 µM,TXK,94%
same,inhibition at 10 µM,STK4 (MST1),93%
same,inhibition at 10 µM,HIPK1 (Myak),70%
same,inhibition at 10 µM,AMPK (A2/B2/G2),78%
same,inhibition at 10 µM,MAPK10 (JNK3),88%
same,inhibition at 10 µM,MET (cMet),95%
same,inhibition at 10 µM,SNF1LK2,97%
same,inhibition at 10 µM,FGFR3 V555M,100%
same,inhibition at 10 µM,MAPK9 (JNK2),79%
same,inhibition at 10 µM,FGFR4,70%
same,inhibition at 10 µM,PLK3,-10%
same,inhibition at 10 µM,MAP4K5 (KHS1),102%
same,inhibition at 10 µM,DDR2 T654M,84%
same,inhibition at 10 µM,DDR1,55%
same,inhibition at 10 µM,AKT2 (PKB beta),29%
same,inhibition at 10 µM,PDGFRA V561D,97%
same,inhibition at 10 µM,PAK4,94%
same,inhibition at 10 µM,MERTK (cMER),93%
